From US5681838A, “Substituted amino compounds, their preparation and their use as inhibitors of thrombocyte-aggregation” (Hoechst Aktiengesellschaft, priority 1993, dated 1997)
Read-outs that look alike come from different tables or passages of the source.

Tests used:
[1] = target: T1, fibrinogen receptor (glycoprotein IIb/IIIa) (Homo sapiens, UniProt P05106+P08514); assay: inhibition of binding of 125I-fibrinogen to its receptor on intact, gel-filtered human blood platelets; settings: following stimulation with ADP (10 μM); read-out: Ki, ADP-stimulated (inhibition of the binding of 125I-fibrinogen)
T1 construct: on intact, gel-filtered human blood platelets; from tissue; host or cells: gel-filtered blood platelets from human donor blood
T1 sequence (P08514 32-887 limits assumed): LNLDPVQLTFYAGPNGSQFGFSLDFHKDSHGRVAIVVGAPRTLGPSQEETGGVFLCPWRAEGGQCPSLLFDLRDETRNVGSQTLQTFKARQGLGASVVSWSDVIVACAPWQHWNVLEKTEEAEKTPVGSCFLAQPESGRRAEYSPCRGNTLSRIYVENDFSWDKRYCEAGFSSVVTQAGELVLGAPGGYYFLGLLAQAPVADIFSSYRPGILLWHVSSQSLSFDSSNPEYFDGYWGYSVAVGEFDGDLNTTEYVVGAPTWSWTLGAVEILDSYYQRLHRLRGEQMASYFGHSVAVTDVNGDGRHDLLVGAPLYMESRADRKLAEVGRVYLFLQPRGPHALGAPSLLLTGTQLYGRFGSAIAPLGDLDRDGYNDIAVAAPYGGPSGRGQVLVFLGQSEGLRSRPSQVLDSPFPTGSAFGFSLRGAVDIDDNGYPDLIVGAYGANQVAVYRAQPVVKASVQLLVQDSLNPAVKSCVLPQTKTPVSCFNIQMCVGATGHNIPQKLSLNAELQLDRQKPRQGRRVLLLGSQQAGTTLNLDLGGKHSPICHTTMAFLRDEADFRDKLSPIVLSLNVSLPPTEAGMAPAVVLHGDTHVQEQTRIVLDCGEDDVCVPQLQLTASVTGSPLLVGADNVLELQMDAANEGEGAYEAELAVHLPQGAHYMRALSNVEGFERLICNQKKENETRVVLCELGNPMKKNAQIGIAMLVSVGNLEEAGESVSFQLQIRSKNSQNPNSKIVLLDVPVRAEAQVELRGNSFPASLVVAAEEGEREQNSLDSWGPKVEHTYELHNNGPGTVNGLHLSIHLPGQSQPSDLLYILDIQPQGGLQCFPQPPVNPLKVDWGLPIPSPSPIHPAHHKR
T1 sequence (P08514 891-1039 limits assumed): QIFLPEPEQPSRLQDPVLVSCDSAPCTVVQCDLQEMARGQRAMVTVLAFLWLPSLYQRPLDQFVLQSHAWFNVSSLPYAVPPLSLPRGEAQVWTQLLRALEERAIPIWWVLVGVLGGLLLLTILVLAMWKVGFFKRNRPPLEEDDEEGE
T1 sequence (P05106 27-788): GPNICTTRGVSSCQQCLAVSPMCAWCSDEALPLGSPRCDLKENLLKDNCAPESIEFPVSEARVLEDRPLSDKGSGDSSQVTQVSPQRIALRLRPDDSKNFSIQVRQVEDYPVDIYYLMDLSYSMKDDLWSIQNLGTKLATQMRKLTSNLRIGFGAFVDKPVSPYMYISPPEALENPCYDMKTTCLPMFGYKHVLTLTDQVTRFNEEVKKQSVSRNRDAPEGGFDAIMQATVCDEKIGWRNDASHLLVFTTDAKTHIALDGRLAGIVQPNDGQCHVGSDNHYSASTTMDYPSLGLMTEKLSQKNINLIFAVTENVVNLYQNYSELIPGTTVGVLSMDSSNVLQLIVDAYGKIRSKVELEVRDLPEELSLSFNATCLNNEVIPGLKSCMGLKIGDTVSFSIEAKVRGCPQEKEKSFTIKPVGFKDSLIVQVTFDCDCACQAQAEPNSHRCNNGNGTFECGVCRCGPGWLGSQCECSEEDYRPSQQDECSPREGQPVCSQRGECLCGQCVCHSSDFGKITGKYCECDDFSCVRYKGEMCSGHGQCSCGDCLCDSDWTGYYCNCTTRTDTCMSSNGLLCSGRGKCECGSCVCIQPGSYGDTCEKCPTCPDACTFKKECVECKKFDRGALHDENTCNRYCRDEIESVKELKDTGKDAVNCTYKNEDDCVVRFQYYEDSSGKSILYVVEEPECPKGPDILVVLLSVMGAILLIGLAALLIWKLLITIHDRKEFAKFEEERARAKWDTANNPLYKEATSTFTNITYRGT
Procedure: (§1) The compounds are tested, in particular, for their ability to inhibit blood-platelet aggregation and the adherence of fibrinogen to blood platelets (gel-filtered blood platelets from human donor blood are used which are activated with ADP or thrombin), as well as for their in-vivo ability to inhibit blood-platelet aggregation and thrombosis.
The test is of the ability of the compounds according to the invention to inhibit the binding of fibrinogen to its receptor (glycoprotein IIb/IIIa) on intact, gel-filtered human blood platelets. The value given is the Ki value for inhibition of the binding of ^125 I-fibrinogen following stimulation with ADP (10 μM). (Literature: J. S. Bennett and G. Vilaire, J. Clin. Invest. 64 (1979), 1393-1401; E. Kornecki et al., J. Biol. Chem. 256 (1981), 5695-5701; G. A. Marguerie et al., J. Biol. Chem. 254 (1979), 5357-5363; G. A. Marguerie et al., J. Biol. Chem. 255 (1980), 154-161).

[2] = test system: gel-filtered human blood platelets; assay: inhibition of aggregation of gel-filtered human blood platelets following stimulation with ADP or thrombin; type: cell-based; settings: Platelet
Procedure: as §1
As a functional test, the ability is measured of the compounds according to the invention to inhibit the aggregation of gel-filtered human blood platelets following stimulation with ADP or thrombin. The value given is the IC50 value of the inhibition. (Literature: G. A. Marguerie et al., J. Biol. Chem. 254 (1979), 5357-5363).

[3] = read-out: ADP-stimulated IC50 (inhibition of platelet aggregation)
[4] = read-out: Thrombin-stimulated IC50 (inhibition of platelet aggregation)

N=C(N)c1ccc(C=CC(=O)NCCCN(CC(=O)O)C(=O)NC(C(=O)O)c2ccccc2)cc1 (centres unmarked) [Example 1, (1-(3-(3-(4-(Aminoiminomethyl)phenyl)acryloylamino)propyl)-3-(hydroxycarbonylphenylmethyl)ureido)acetic acid acetate]
Ki [1]: 420 nM | IC50 [2, 3]: 1500 nM | IC50 [2, 4]: 1000 nM

N=C(N)c1ccc(CC2NC(=O)N(CCN(CC(=O)O)C(=O)OCC3c4ccccc4-c4ccccc43)C2=O)cc1 (centres unmarked) [Example 2, (2-(4-(4-(Aminoiminomethyl)benzyl)-2,5-dioxoimidazolidin-1-yl)ethyl)-(9-fluorenylmethoxycarbonyl)aminoacetic acid]
IC50 [2, 3]: 20000 nM | IC50 [2, 4]: 20000 nM
